Results published in ChEMBL document CHEMBL1949541, “Discovery of 7-arylsulfonyl-1,2,3,4, 4a,9a-hexahydro-benzo[4,5]furo[2,3-c]pyridines: identification of a potent and selective 5-HT₆ receptor antagonist showing activity in rat social recognition test” (Bioorg Med Chem Lett, 2012).
pIC50, pKi: −log10 of the molar value.

Key:
Rattus norvegicus [1] = test: Ratio of drug uptake in brain to plasma in rat at 5 mg/kg, po
[2] = Oral bioavailability in rat at 5 mg/kg; format: ADME, organism-based; settings: in vivo
[3] = molecular target: T1, 5-hydroxytryptamine receptor 6 (Homo sapiens, UniProt P50406); test: Antagonist activity at human 5HT6 receptor expressed in human astrocytoma cells assessed as inhibition of cAMP production; format: functional, cell-based
Rattus norvegicus [4] = test: Half life in rat at 1 mg/kg, iv; format: ADME, organism-based; parameters: dose 1 mg/kg, route intravenous; settings: in vivo
[5] = molecular target: 5-hydroxytryptamine receptor 6 (Rattus norvegicus, UniProt P31388); test: Displacement of [3H]LSD from rat recombinant 5HT6 receptor
Rattus norvegicus [6] = test: Volume of distribution in rat at 1 mg/kg, iv; format: ADME, organism-based; parameters: dose 1 mg/kg, route intravenous; settings: in vivo
[7] = molecular target: T1, 5-hydroxytryptamine receptor 6; test: Displacement of [3H]LSD from human recombinant 5HT6 receptor

T1 sequence (P50406 whole entry): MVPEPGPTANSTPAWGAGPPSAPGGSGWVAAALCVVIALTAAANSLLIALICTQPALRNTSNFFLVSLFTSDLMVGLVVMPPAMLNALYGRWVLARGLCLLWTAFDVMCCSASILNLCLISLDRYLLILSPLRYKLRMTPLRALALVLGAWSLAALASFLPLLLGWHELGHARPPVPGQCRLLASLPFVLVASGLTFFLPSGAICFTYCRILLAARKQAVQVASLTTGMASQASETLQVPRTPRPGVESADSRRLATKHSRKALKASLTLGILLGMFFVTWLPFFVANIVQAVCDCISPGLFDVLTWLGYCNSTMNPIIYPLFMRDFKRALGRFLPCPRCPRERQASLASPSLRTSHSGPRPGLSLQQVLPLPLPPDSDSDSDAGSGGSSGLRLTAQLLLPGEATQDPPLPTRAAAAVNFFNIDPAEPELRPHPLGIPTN
Sequence of 5-hydroxytryptamine receptor 6 (Rattus norvegicus, UniProt P31388) (P31388 whole entry): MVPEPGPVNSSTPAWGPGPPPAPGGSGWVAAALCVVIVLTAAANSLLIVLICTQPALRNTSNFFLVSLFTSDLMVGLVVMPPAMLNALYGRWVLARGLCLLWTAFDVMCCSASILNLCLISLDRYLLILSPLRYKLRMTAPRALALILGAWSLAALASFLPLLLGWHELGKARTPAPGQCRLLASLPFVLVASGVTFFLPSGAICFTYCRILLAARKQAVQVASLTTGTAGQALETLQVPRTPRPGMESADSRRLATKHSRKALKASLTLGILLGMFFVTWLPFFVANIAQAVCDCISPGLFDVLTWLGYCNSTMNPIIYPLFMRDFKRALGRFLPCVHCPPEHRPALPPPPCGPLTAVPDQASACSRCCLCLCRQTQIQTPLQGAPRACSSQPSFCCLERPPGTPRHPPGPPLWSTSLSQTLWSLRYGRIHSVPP

Work on COc1cc(OC(C)C)cc(S(=O)(=O)c2ccc3c(c2)O[C@H]2CNCC[C@@H]32)c1.Cl (single isomer, unassigned; enantiomer 2) yielded a BPR (Rattus norvegicus [1]) of 2.29, a bioavailability [2] of 11% and a pIC50 [3] of 7.35. The t1/2 (Rattus norvegicus [4]) was 24 min, the pKi [5] was 7.26 and the Vd (Rattus norvegicus [6]) was 1 L/kg. The pKi [7] was 7.92.
